Here are results for 4 molecules from patent publication US20260157376A1, “METHOD OF CONTROLLING, LIMITING OR PREVENTING OOMYCETES” (priority 2022, published 2026).

In this experiment the test system is Pythium ultimum. Put plainly: In vitro growth inhibition of Pythium ultimum in PDB nutrient broth, 96-well microtiter plate. Format: cell-based. To be noted: 24° C., 48 hours.

In the case of `N.N.O=[PH](O)O` [Diammonium phosphonate], the “Observed efficacy (%)” value is listed as 50% (500 ppm) and 70% (1000 ppm).
As for Monopotassium phosphite, the “Observed efficacy (%)” value is on record as 20% (125 ppm), 20% (250 ppm) and 20% (500 ppm).
Consider Inpyrfluxam [reference compound], for which the “Observed efficacy (%)” value (20 ppm) amounted to 0%.
As to `COCC(=O)N(c1c(C)cccc1C)[C@H](C)C(=O)OC` [Mefenoxam, reference compound], the “Observed efficacy (%)” value runs as follows: (0.007 ppm) 0%; (0.02 ppm) 20%; (0.06 ppm) 50%.
